For one assay, the target named is T1, PRMT5/MEP50 (Homo sapiens, UniProt O14744).
T1 construct: Flag-PRMT5; made in house; host or cells: Spodoptera frugiperda (SF9) insect cells, baculovirus (pDEST8)
The assay can be described thus: PRMT5 Biochemical Assay (PRMT5/MEP50 enzyme assay on peptide substrate, 3H-SAM Flashplate). The following applies: PRMT5/MEP50 4 nM, 3H-SAM 75 nM, peptide 40 nM, 30 min preincubation at 25 degrees Celsius. The method, boiled down:
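FLAG-PRMT5/His-MEP50 from Sf9 cells (4 nM) preincubated 30 min at 25 °C with compounds, then reacted with 75 nM 3H-SAM and 40 nM biotinylated histone H4 1-15 peptide in Bicine pH 7.6, 1% DMSO. Stopped with 600 uM cold SAM; streptavidin Flashplate capture, scintillation counts; % inhibition fitted to 3- or 4-parameter curve.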

A further assay concerns Z-138 cell line. The assay is described as follows: Z-138 Proliferation Assay (Cell Titer Glo). It counts as cell-based. The following applies: Homo sapiens, 120 h; Z-138 cells, 5 days incubation, ATP (Cell Titer Glo). The method, boiled down: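 Z-138 cells in RPMI with 10% FBS exposed 5 days at 37 °C to nine-point 3-fold dilutions, top 20 μM final, 0.2% DMSO, triplicate. ATP-based CellTiter-Glo luminescence; IC50 from 4-parameter fit of normalized curves.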

pEC50, pIC50: −log10 of the molar value.

T1 sequence (O14744 with tags, fused parts or gaps): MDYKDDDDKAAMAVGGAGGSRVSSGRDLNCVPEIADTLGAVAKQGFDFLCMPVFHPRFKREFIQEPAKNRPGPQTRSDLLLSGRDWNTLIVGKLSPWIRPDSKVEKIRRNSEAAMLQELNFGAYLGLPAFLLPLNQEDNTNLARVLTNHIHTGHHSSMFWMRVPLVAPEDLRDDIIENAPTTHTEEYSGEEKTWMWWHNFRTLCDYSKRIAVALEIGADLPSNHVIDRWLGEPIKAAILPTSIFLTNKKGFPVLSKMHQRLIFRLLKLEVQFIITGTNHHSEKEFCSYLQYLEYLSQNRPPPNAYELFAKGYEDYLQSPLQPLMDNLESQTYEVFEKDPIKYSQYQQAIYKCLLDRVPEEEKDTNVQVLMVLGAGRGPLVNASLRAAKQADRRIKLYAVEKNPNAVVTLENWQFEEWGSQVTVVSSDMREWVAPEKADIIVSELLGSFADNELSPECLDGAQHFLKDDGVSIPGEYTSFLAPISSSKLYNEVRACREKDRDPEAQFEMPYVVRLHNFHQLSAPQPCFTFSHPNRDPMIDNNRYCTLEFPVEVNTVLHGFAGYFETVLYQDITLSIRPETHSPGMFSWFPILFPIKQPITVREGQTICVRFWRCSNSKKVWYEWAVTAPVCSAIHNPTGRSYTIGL
T1 sequence (Q9BQA1 with tags, fused parts or gaps partner limits assumed): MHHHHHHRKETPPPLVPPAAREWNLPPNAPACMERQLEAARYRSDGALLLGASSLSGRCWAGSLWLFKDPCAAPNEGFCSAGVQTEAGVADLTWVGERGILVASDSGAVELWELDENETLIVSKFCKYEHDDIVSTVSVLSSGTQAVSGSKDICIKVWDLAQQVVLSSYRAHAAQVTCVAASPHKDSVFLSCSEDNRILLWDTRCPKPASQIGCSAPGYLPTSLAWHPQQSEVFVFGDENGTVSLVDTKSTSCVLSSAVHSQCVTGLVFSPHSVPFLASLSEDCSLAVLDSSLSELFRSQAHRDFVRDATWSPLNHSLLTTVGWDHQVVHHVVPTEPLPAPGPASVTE

As for `CC(=O)N1CC(Nc2cc(C(=O)NC[C@H](O)CN3CCc4c(cnn4C)C3)ncn2)C1` [Compound 3-29], the pIC50 – broadly, the negative decadic logarithm of the IC50, by convention in mol/L – at PRMT5/MEP50 is below 5.00. Moreover, the pEC50 (as a rule, −log10 of the EC50, conventionally taken in molar units) in the assay on Z-138 cell line was below 5.30.

With `O=C(COc1cccc2cccnc12)NCC(O)CN1CCc2ccsc2C1` (stereo not drawn) [Compound 1-5, N-(2-hydroxy-3-{4H,5H,6H,7H-thieno[2,3-c]pyridin-6-yl}propyl)-2-(quinolin-8-yloxy)acetamide], the pIC50 on PRMT5/MEP50 was above 7.00. This molecule also had a pEC50 in the assay with Z-138 cell line below 5.30.

Take `CC(=O)N1CCC(Nc2cc(C(=O)NC[C@H](O)CN3CCc4ncn(C)c4C3)ncn2)CC1` [Compound 3-30, (S)-6-((1-acetylpiperidin-4-yl)amino)-N-(2-hydroxy-3-(3-methyl-6,7-dihydro-3H-imidazo[4,5-c]pyridin-5(4H)-yl)propyl)pyrimidine-4-carboxamide]: at PRMT5/MEP50, the pIC50 is below 5.00. The molecule further showed a pEC50 in the assay with Z-138 cell line below 5.30.

These data come from patent US20170210751A1, “PRMT5 INHIBITORS AND USES THEREOF” (Epizyme, Inc., priority 2014, published 2017).
